Patent US5219884A, “Immunosuppressant” (Taito Co., Ltd., priority 1990, dated 1993)
Values after ≈ are worked out from the molar mass of the structure shown. Like-named read-outs stand apart in the source and are kept apart here.

What was measured:
Assay type in all cases: cell-based
[1] = system: human allogenic MLR (peripheral blood lymphocytes); test: human allogenic MLR-suppressive activity; settings: for inhibition at 0.0001 µg/mL / inhibition at 0.001 µg/mL / inhibition at 0.01 µg/mL / inhibition at 0.1 µg/mL / inhibition at 1 µg/mL / inhibition at 10 µg/mL / inhibition at 10 pg/mL: Homo sapiens, read-out: Suppression; for inhibition at 0.0001 µg/mL / inhibition at 0.001 µg/mL / inhibition at 0.01 µg/mL / inhibition at 0.1 µg/mL / inhibition at 1 µg/mL / inhibition at 10 µg/mL / inhibition at 10 pg/mL / IC50: Lymphocyte; for IC50: human allogenic MLR, read-out: 50%-inhibition concentration (IC50)
Procedure: The human allogenic MLR-suppressive activity was assayed as follows:
Human peripheral blood lymphocytes obtained by Ficoll-Paque density gradient centrifugation of normal human peripheral blood were suspended in the RPMI1640 medium supplemented with 10% FCS, placed in plastic dishes, and incubated at 37° C. in an atmosphere of 5% carbon dioxide for 2 hours. After termination of incubation, the supernatant after gentle pipetting was harvested and centrifuged (1000 rpm, for 5 minutes) to obtain plastic-nonadherent cells. The plastic-nonadherent cells were allowed to pass through a nylon-wool column to give nylon-nonadherent cells, and the concentration of the cell suspension was adjusted to 4×10^6 cells/ml by using the RPMI1640 culture medium supplemented with 10% FCS, and used as the responder cell suspension.
The plastic-adherent cells were removed from the plastic dish by vigorous pipetting after addition of phosphate buffered saline supplemented with 5% FCS and 0.02% disodium ethylenediamine-tetraacetic acid (EDTA). The plastic-adherent cells were treated with 40 μg/ml of mitomycin C at 37° C. for 60 minutes, washed three times, and suspended to the concentration of 4×10^6 cells/ml in the RPMI1640 culture medium supplemented with 10% FCS. The resultant suspension was used as the stimulator cell suspension. Fifty μl of the responder cell suspension from the donor A or C was mixed with 50 μl of the stimulator cell suspension from the donor B or D, to which 100 μl of the test substance was added, and cultured at 37° C. in the an atmosphere 5% carbon dioxide for 5 days.
After termination of the culture, 1.0 μCi/well of ^3 H-thymidine was added, and after 18 hours of culture, the cells were harvested by a cell-harvester. The radioactivity incorporated into the cells was measured by a liquid scintillation counter as the index of blastogenic response of lymphocytes in human allogenic MLR. The suppression of human allogenic MLR was evaluated by calculating the percent suppression by the following formula. [formula]

[2] = system: IL2 production in mouse allogenic MLC; test: suppression of IL2 production in mouse allogenic MLC
Procedure: Mouse allogenic MLC was carried out as follows:
The respondor cell suspension and the stimulator cell suspension (0.5 ml each) prepared in the same way as in Experimental Example 1 together with 1 ml of test substance were added to 24-well multidishes, and cultured at 37° C. in an atmosphere of 5% carbon dioxide for 2 days. After termination of the culture, the supernatant was collected and used as the supernatant of mouse allogenic MLC.
The IL2 activity in the supernatants of mouse allogenic MLC and the supernatants of PHA-stimulated mouse spleen cells culture was assayed as follows: IL2-dependent mouse cell line CTLL-2 cells were suspended in the RPMI1640 culture medium supplemented with 30% FCS to the concentration of 10^5 cells/ml, and 100 μl of the suspension was added to each well of 96-well microculture plates in which 100 μl of the supernatant of the MLC described above had been placed. After culturing at 37° C. in an atmosphere of 5% carbon dioxide for 20 hours, 0.5 μCi/well of ^3 H-thymidine was added, and incubated for 4 hours under the same conditions. After termination of the culture, the cells were harvested by a cell harvester, and the radioactivity incorporated into the cells was measured by a liquid scintillation counter. IL2 activity was expressed in U/ml as the titer at various concentrations at which the ^3 H-thymidine incorporation was 50% of the maximum.

[3] = system: IL3-dependent mouse cell line FDC-P2; test: suppression of IL3-induced proliferation of FDC-P2
Procedure: IL3-dependent mouse cell line FDC-P2 cells were suspended in the RPMI1640 culture medium supplemented with 10% FCS to the concentration of 2×10^5 cells/ml. One hundred μl of the suspension and 50 μl of the supernatant of the culture of mouse luekemia cells WEHI3 containing IL3 were added to each well of 96-well microculture plates in which 100 μl of the test substance had been placed. After culturing at 37° C. in an atmosphere of 5% carbon dioxide for 20 hours, 0.5 μCi/well of ^3 H-thymidine was added, and cultured for 4 hours under the same conditions. After termination of the culture, the cells were harvested by a cell harvester, and the radioactivity incorporated into the cells was determined by a liquid scintillation counter, and was used as an index of the IL3-dependent proliferation.

[4] = system: IL3 production in PHA-stimulated mouse spleen cells; test: suppression of IL3 production in PHA-stimulated mouse spleen cells
Procedure: The supernatant of mouse allogenic MLC and the supernatant of PHA-stimulated mouse spleen cells culture were prepared in the same manner as in Experimental Example 6.
The IL3 activity in the supernatant described above was assayed as follows: IL3-dependent mouse cell line FDC-P2 cells were suspended in the RPMI1640 culture medium supplemented with 10% FCS to the concentration of 10^5 cells/ml, and 100 μl of the suspension was added to each well of 96-well microculture plates in which 100 μl per well of the two-fold serial dilutions of the supernatant described above had been placed. After culturing at 37° C. in an atmosphere of 5% carbon dioxide for 20 hours, 0.5 μCi/well of ^3 H-thymidine was added, and cultured for further 4 hours under the same conditions. After termination of the culture, the cells were harvested by a cell harvester, and the radioactivity incorporated into the cells was measured by a liquid scintillation counter. The IL3 activity was expressed in U/ml as the titer at the concentrations at which the amount of ^3 H-thymidine incorporated was 50% of the maximum.

## CCCCCCC(O)CCCCCC/C=C/CC(O)C(O)C(N)(CO)C(=O)O (centres unmarked) [Example 6]
[1]; donor A/donor B, 0.0001 μg/ml
  inhibition at 0.0001 µg/mL: 45.2%
  3H-thymidine uptake: 14191 cpm
[1]; donor A/donor B, 0.001 μg/ml
  inhibition at 0.001 µg/mL: 56.2%
  3H-thymidine uptake: 11753 cpm
[1]; donor A/donor B, 0.01 μg/ml
  inhibition at 0.01 µg/mL: 81.7%
  3H-thymidine uptake: 6335 cpm
[1]; donor A/donor B, 0.1 μg/ml
  inhibition at 0.1 µg/mL: 81.3%
  3H-thymidine uptake: 6418 cpm
[1]; donor A/donor B, 1 μg/ml
  inhibition at 1 µg/mL: 83.9%
  3H-thymidine uptake: 5877 cpm
[1]; donor A/donor B, 10 μg/ml
  inhibition at 10 µg/mL: 90%
  3H-thymidine uptake: 4564 cpm
[1]; donor C/donor D, 0.0001 μg/ml
  inhibition at 0.0001 µg/mL: 14%
  3H-thymidine uptake: 14996 cpm
[1]; donor C/donor D, 0.001 μg/ml
  inhibition at 0.001 µg/mL: 51.7%
  3H-thymidine uptake: 8468 cpm
[1]; donor C/donor D, 0.01 μg/ml
  inhibition at 0.01 µg/mL: 77%
  3H-thymidine uptake: 4082 cpm
[1]; donor C/donor D, 0.1 μg/ml
  inhibition at 0.1 µg/mL: 80.3%
  3H-thymidine uptake: 3501 cpm
[1]; donor C/donor D, 1 μg/ml
  inhibition at 1 µg/mL: 86.4%
  3H-thymidine uptake: 2448 cpm
[1]
  inhibition at 10 pg/mL: 6.8%
  IC50: 0.22 ng/mL (≈ 0.545 nM)
[1]; donor C/donor D, 0.00001 μg/ml
  3H-thymidine uptake: 16241 cpm

## CCCCCCC(=O)CCCCCC/C=C/CC1OC(=O)C(N)(CO)C1O (centres unmarked) [Example 4]
[2]; 0.01 μg/ml
  IL2 activity: 4.0 U/ml
[2]; 0.1 μg/ml
  IL2 activity: 1.7 U/ml
[2]; 1 μg/ml
  IL2 activity: < 1 U/ml
[2]; 10 μg/ml
  IL2 activity: < 1 U/ml
[2]; Mus musculus, 48 h, 0.01 μg/ml, read-out: Suppression
  inhibition at 0.01 µg/mL: 59.2%
[2]; Mus musculus, 48 h, 0.1 μg/ml, read-out: Suppression
  inhibition at 0.1 µg/mL: 82.7%
[2]; Mus musculus, 48 h, 1 μg/ml, read-out: Suppression
  inhibition at 1 µg/mL: > 90%
[2]; Mus musculus, 48 h, 10 μg/ml, read-out: Suppression
  inhibition at 10 µg/mL: > 90%
[1]; donor A/donor B, 0.0001 μg/ml
  inhibition at 0.0001 µg/mL: 32.3%
  3H-thymidine uptake: 16963 cpm
[1]; donor A/donor B, 0.001 μg/ml
  inhibition at 0.001 µg/mL: 47.4%
  3H-thymidine uptake: 13715 cpm
[1]; donor A/donor B, 0.01 μg/ml
  inhibition at 0.01 µg/mL: 65.8%
  3H-thymidine uptake: 9754 cpm
[1]; donor A/donor B, 0.1 μg/ml
  inhibition at 0.1 µg/mL: 89.2%
  3H-thymidine uptake: 4734 cpm
[1]; donor A/donor B, 1 μg/ml
  inhibition at 1 µg/mL: 83.5%
  3H-thymidine uptake: 5954 cpm
[1]; donor A/donor B, 10 μg/ml
  inhibition at 10 µg/mL: 86.4%
  3H-thymidine uptake: 5332 cpm
[1]; donor C/donor D, 0.00001 μg/ml
  inhibition at 10 pg/mL: 55.8%
  3H-thymidine uptake: 7746 cpm
[1]; donor C/donor D, 0.0001 μg/ml
  inhibition at 0.0001 µg/mL: 61.9%
  3H-thymidine uptake: 6700 cpm
[1]; donor C/donor D, 0.001 μg/ml
  inhibition at 0.001 µg/mL: 58.5%
  3H-thymidine uptake: 7278 cpm
[1]; donor C/donor D, 0.01 μg/ml
  inhibition at 0.01 µg/mL: 80.8%
  3H-thymidine uptake: 3417 cpm
[1]; donor C/donor D, 0.1 μg/ml
  inhibition at 0.1 µg/mL: 84.9%
  3H-thymidine uptake: 2708 cpm
[1]; donor C/donor D, 1 μg/ml
  inhibition at 1 µg/mL: 79.2%
  3H-thymidine uptake: 3703 cpm
[1]
  IC50: 0.79 ng/mL (≈ 2.06 nM)
[3]; 0.001 μg/ml
  3H-thymidine uptake: 7754 cpm
[3]; 0.01 μg/ml
  3H-thymidine uptake: 6557 cpm
[3]; 0.1 μg/ml
  3H-thymidine uptake: 5861 cpm
[3]; 1 μg/ml
  3H-thymidine uptake: 4922 cpm
[3]; 10 μg/ml
  3H-thymidine uptake: 2902 cpm
[3]; Mus musculus, 24 h, 0.001 μg/ml
  inhibition at 0.001 µg/mL: 8.3%
[3]; Mus musculus, 24 h, 0.01 μg/ml
  inhibition at 0.01 µg/mL: 25.9%
[3]; Mus musculus, 24 h, 0.1 μg/ml
  inhibition at 0.1 µg/mL: 36.2%
[3]; Mus musculus, 24 h, 1 μg/ml
  inhibition at 1 µg/mL: 50.1%
[3]; Mus musculus, 24 h, 10 μg/ml
  inhibition at 10 µg/mL: 79.9%
[4]; 0.01 μg/ml
  IL3 activity: 9.1 U/ml
[4]; 0.1 μg/ml
  IL3 activity: 2.8 U/ml
[4]; 1 μg/ml
  IL3 activity: 2.3 U/ml
[4]; 10 μg/ml
  IL3 activity: < 2 U/ml
[4]; Mus musculus, 0.01 μg/ml, read-out: Suppression
  inhibition at 0.01 µg/mL: 46.8%
[4]; Mus musculus, 0.1 μg/ml, read-out: Suppression
  inhibition at 0.1 µg/mL: 83.6%
[4]; Mus musculus, 1 μg/ml, read-out: Suppression
  inhibition at 1 µg/mL: 86.5%
[4]; Mus musculus, 10 μg/ml, read-out: Suppression
  inhibition at 10 µg/mL: > 90%

## CCCCCCC(=O)CCCCCCCCCC(O)C(O)C(N)(CO)C(=O)O (centres unmarked) [Example 5]
[1]; donor A/donor B, 0.0001 μg/ml
  inhibition at 0.0001 µg/mL: 14.4%
  3H-thymidine uptake: 20789 cpm
[1]; donor A/donor B, 0.001 μg/ml
  inhibition at 0.001 µg/mL: 42.8%
  3H-thymidine uptake: 14690 cpm
[1]; donor A/donor B, 0.01 μg/ml
  inhibition at 0.01 µg/mL: 59.4%
  3H-thymidine uptake: 11130 cpm
[1]; donor A/donor B, 0.1 μg/ml
  inhibition at 0.1 µg/mL: 87.1%
  3H-thymidine uptake: 5181 cpm
[1]; donor A/donor B, 1 μg/ml
  inhibition at 1 µg/mL: 85.4%
  3H-thymidine uptake: 5548 cpm
[1]; donor A/donor B, 10 μg/ml
  inhibition at 10 µg/mL: 99.8%
  3H-thymidine uptake: 2439 cpm
[1]; donor C/donor D, 0.00001 μg/ml
  inhibition at 10 pg/mL: 32.3%
  3H-thymidine uptake: 11827 cpm
[1]; donor C/donor D, 0.0001 μg/ml
  inhibition at 0.0001 µg/mL: 54.7%
  3H-thymidine uptake: 7941 cpm
[1]; donor C/donor D, 0.001 μg/ml
  inhibition at 0.001 µg/mL: 48.3%
  3H-thymidine uptake: 9057 cpm
[1]; donor C/donor D, 0.01 μg/ml
  inhibition at 0.01 µg/mL: 58.1%
  3H-thymidine uptake: 7346 cpm
[1]; donor C/donor D, 0.1 μg/ml
  inhibition at 0.1 µg/mL: 84.7%
  3H-thymidine uptake: 2746 cpm
[1]; donor C/donor D, 1 μg/ml
  inhibition at 1 µg/mL: 80.5%
  3H-thymidine uptake: 3466 cpm
[1]
  IC50: 0.35 ng/mL (≈ 0.867 nM)
